Measurements taken from PMC4844309, “Identification of a Bioactive Compound against Adult T-cell Leukaemia from Bitter Gourd Seeds” (Plants, 2013).
Where two headings read alike, the source gives them in different places.

Assays:
[1] = tested on: ED cells; test: ATL cell proliferation assay (WST-8), ED cells; type: cell-based, human; details: read-out: IC50 (inhibition of cell proliferation), ED
Method: (§1) ED cells were kindly provided by Dr. M. Maeda (Kyoto University, Kyoto, Japan) and Su9T01 cells were kindly provided by Dr. N. Arima (Kagoshima University, Kagoshima, Japan). The test compounds were dissolved in dimethyl sulfoxide and subjected to assay screening. The method of ATL assay is described in a previous report. IC50 calculation was some curve fitted onto the determined proliferation inhibition points.

[2] = tested on: Su9T01 cells; test: ATL cell proliferation assay (WST-8), Su9T01 cells; type: cell-based, human; details: read-out: IC50 (inhibition of cell proliferation), Su9T01
Method: as §1

[3] = tested on: phytohemagglutinin-activated human peripheral blood mononuclear cells (PBMC); test: cells; details: read-out: IC50 (inhibition of PBMC proliferation)
Method: as §1

[4] = tested on: HL-60 cells; parameters: method as in PMID 22654956, PMID 18959405; details: human acute myelogenous leukemia cells; cited from earlier work
[5] = Homo sapiens, ED cells, 72 h incubation in RPMI-1640, WST-8 assay
[6] = Homo sapiens, Su9T01 cells, 72 h incubation in RPMI-1640, WST-8 assay
[7] = ED cells, 72 h incubation in RPMI-1640, WST-8 assay
[8] = Su9T01 cells, 72 h incubation in RPMI-1640, WST-8 assay

With `CCCCCCCC/C=C/CCCCCCCC(=O)O` [elaidic acid] as the compound, how does the IC50 ([1]; Homo sapiens, 72 h) read?
Its IC50 is > 500 µM.

What about the IC50 ([2]; Homo sapiens, 72 h) of the same compound?
Its IC50 is > 500 µM.

Which IC50 [1, 5] does the source give for `CCCCC/C=C\C/C=C\CCCCCCCC(=O)O` [linoleic acid] here?
Its IC50 is 101 µM.

What about the IC50 [2, 6] of the same compound?
Its IC50 is 180 µM.

For `CCCCCCCCCCCCCCCCCC(=O)O` [stearic acid, Stearic acid], which IC50 [2, 6] is on record?
The IC50 was > 500 µM.

For `CCCC/C=C/C=C/C=C\CCCCCCCC(=O)O` [α-ESA, α-Eleostearic acid], which IC50 ([1]; Homo sapiens, 72 h) is on record?
Its IC50 is 8.9 µM.

And the IC50 ([2]; Homo sapiens, 72 h)?
The IC50 was 29.3 µM.

And the IC50 [3]?
Its IC50 is 31 µM.

What about the “Anti-leukemic potential in HL-60 cells” value [4] of the same compound?
The value was “anti-leukemic potential”.

Which IC50 [1, 7] does the source give for `CC/C=C\C/C=C\C/C=C\CCCCCCCC(=O)O` [α-linolenic acid] here?
Its IC50 is 130 µM.

What about the IC50 [2, 8] of the same compound?
The IC50 was 167 µM.

Which IC50 [1, 5] does the source give for `CCCCC/C=C\C/C=C\C/C=C\CCCCC(=O)O` [γ-linolenic acid, γ-Linolenic acid] here?
The IC50 was 61.3 µM.

What about the IC50 [2, 6] of the same compound?
The IC50 was 174 µM.

With Epigallocatechin-3-gallate [EGCG] as the compound, how does the IC50 [1, 7] read?
The IC50 was 153 µM.

And the IC50 [2, 8]?
Its IC50 is 166 µM.
